ChEMBL document CHEMBL1151413 (J Nat Prod, 1983)
Active and inactive are the calls of the source. The rule behind the calls is not given here.

Columns and labels:
Platelet [1] = test: Disaggregation activity against ADP-induced rabbit platelet aggregation at 10 ug/ml relative to ADP response; assay type: functional, cell-based; details: Oryctolagus cuniculus
Ileum [2] = test: Inhibition of coaxially-induced guinea pig ileum contraction at 10 ug/ml; assay type: functional, tissue-based; details: Cavia porcellus, TDE = time-dependent effect
Ileum [3] = test: Inhibition of acetylcholine-induced guinea pig ileum contraction assessed as residual activity at 10 ug/ml after 30 to 50 mins relative to control; assay type: functional, Cavia porcellus
Ileum [4] = test: Inhibition of acetylcholine-induced guinea pig ileum contraction; assay type: functional, tissue-based; details: Cavia porcellus, TDE = time-dependent effect
Ileum [5] = test: Inhibition of acetylcholine-induced guinea pig ileum contraction at 5 ug/ml after 15 mins; assay type: functional, tissue-based; details: Cavia porcellus
Platelet [6] = test: Antiaggregation activity against arachidonic acid-induced rabbit platelet aggregation at 10 ug/ml; assay type: functional, cell-based; details: Oryctolagus cuniculus, TDE = time-dependent effect
Ileum [7] = test: Inhibition of histamine-induced guinea pig ileum contraction; details: Cavia porcellus, read-out: pA2 (converted)
Ileum [8] = test: Inhibition of acetylcholine-induced guinea pig ileum contraction assessed as residual activity at 5 ug/ml after 30 to 50 mins relative to control; assay type: functional, Cavia porcellus
Platelet [9] = test: Antiaggregation activity against ADP-induced rabbit platelet aggregation at 10 ug/ml; assay type: functional, cell-based; details: Oryctolagus cuniculus, TDE = time-dependent effect
Ileum [10] = test: Inhibition of acetylcholine-induced guinea pig ileum contraction at 10 ug/ml after 15 mins; assay type: functional, tissue-based; details: Cavia porcellus
Ileum [11] = test: Inhibition of BaCl2-induced guinea pig ileum contraction at 10 ug/ml after 15 mins; assay type: functional, tissue-based; details: Cavia porcellus
Platelet [12] = test: Disaggregation activity against arachidonic acid-induced rabbit platelet aggregation at 10 ug/ml relative to arachidonic acid response; assay type: functional, cell-based; details: Oryctolagus cuniculus

**Q.** With `C=C[C@@]12COC(=O)C(=C)[C@@H]1[C@H]1OC(=O)C(=C)[C@@H]1[C@@H](O)C2` [VERNOLEPIN] as the compound, how does the Activity (Platelet [1]) read?
**A.** Its Activity is “Active”.

**Q.** And the Activity (Ileum [2])?
**A.** The Activity was “tde”.

**Q.** And the Activity (Ileum [3])?
**A.** The Activity was under 20%.

**Q.** What about the Activity (Ileum [4]) of the same compound?
**A.** The Activity was “tde”.

**Q.** And the Activity (Ileum [5])?
**A.** Its Activity is “inactive”.

**Q.** And the Activity (Platelet [6])?
**A.** The Activity was “tde”.

**Q.** What about the Kb (Ileum [7]) of the same compound?
**A.** Its Kb is 2450 nM.

**Q.** What about the Activity (Ileum [8]) of the same compound?
**A.** The Activity was under 40%.

**Q.** What about the Activity (Platelet [9]) of the same compound?
**A.** Its Activity is “tde”.

**Q.** And the Activity (Ileum [10])?
**A.** Its Activity is “inactive”.

**Q.** And the Activity (Ileum [11])?
**A.** Its Activity is “inactive”.

**Q.** What about the Activity (Platelet [12]) of the same compound?
**A.** The Activity was “Active”.
